The numbers were not newly measured in patent publication US11654127B2, “Composition for use in the prevention and/or treatment of Oncologic Treatment Induced Orogastrointestinal Mucositis” (Mucosa Innovations, S.L., priority 2017, dated 2023), which cites them from elsewhere.

Each structure is given as a SMILES string.

For this series, the system named is OTIOM. Conditions: saliva stimulant.

With `CC[C@@H]1C(=O)OC[C@@H]1Cc1cncn1C` [pilocarpine], the “effect in preventing or treating OTIOM” value is recorded as “no beneficial effect”.
